Results as given in patent US8980587B2, “Process for producing reveromycin A or a synthetic intermediate thereof, process for producing compounds containing a spiroketal ring and novel antineoplastics, fungicides and therapeutic agents for bone disorders” (RIKEN, priority 2010, dated 2015).
In brackets after ≈: the same amount, converted by molar mass. Read-outs that look alike come from different tables or passages of the source.

How the values were obtained:
[1] = tested on: tsFT210 cells (mouse breast cancer cells CDC2 temperature sensitive strain); test: Growth-inhibiting activity against animal cells (WST-8), tsFT210; assay type: cell-based
Protocol: (§1) HL-60 cells (human acute promyelocytic leukemia cell line) and K562 cells (human chronic myeloid leukemia cell line) were maintained in a culture medium in which RPMI1640 medium (manufactured by Invitrogen) was added with 10% fetal bovine serum (manufactured by Nichirei), 0.5% penicillin/streptomycin solution (manufactured by Invitrogen) at 37° C. under a humidified culture of 5% CO2. tsFT210 cells (mouse breast cancer cells CDC2 temperature sensitive strain) were maintained in a culture medium in which RPMI1640 medium (manufactured by Invitrogen) was added with 5% calf serum (manufactured by Hyclone) and 0.5% penicillin/streptomycin solution at 32° C. under a humidified culture of 5% CO2.
(§2) HL-60 cells and K562 cells were seeded in a 96-well plate (manufactured by IWAKI) so as to be 1.5×10^4 cells/well/100 μl. tsFT210 cells were seeded in a 96-well plate so as to be 1.6×10^4 cell/well/100 μl. Each of the agents in Table 5 was added at 0.5% (v/v). HL-60 cells and K562 cells were maintained at 37° C. under a humidified culture of 5% CO2 and tsFT210 cells were maintain at 32° C. under a humidified culture of 5% CO2. Forty eight hours after addition of the agent, 10 μl of a reagent SF solution for counting live cells (WST-8 reagent, manufactured by Nakarai tesque) was added to each well. HL-60 cells and K562 cells were maintained at 37° C. under a humidified culture of 5% CO2 for 30 minutes and tsFT210 cells were maintain at 32° C. under a humidified culture of 5% CO2 for one hour. After the reaction, absorbance at 450 nm was measured using a microplate reader (manufactured by PerkinElmer) and a cell proliferation rate was determined from the measurement value.

[2] = tested on: osteoclasts; test: Growth inhibitory activity against osteoclast (TRAP positive multinucleated cell count); assay type: cell-based, mouse; conditions: for IC50: Osteoclast, read-out: OC IC50
Protocol: Bone marrow cells were harvested from thigh bone and shin bone of five-week male ddY mouse (manufactured by Japan SLC, Inc.), seeded in a type I collagen coated plate (manufactured by IWAKI) in a culture medium in which α-MEM medium (manufactured by Sigma-Aldrich) was added with 10% fetal bovine serum, 0.5% penicillin/streptomycin solution, 50 ng/ml human M-CSF (Leukoprol, manufactured by Kyowa Hakko), and 1 ng/ml human TGF-β1 (manufactured by R&D Systems), and maintained at 37° C. under a humidified culture of 5% CO2 for 3 days. Cells were then washed twice with PBS and then cells adhered on the plate were used as bone marrow macrophage cells. Bone marrow macrophage cells were further maintained in a culture medium in which α-MEM medium was added with 10% fetal-bovine serum, 0.5% penicillin/streptomycin solution, 50 ng/ml human M-CSF, 50 ng/ml human soluble RANKL (manufactured by Peprotech) at 37° C. under a humidified culture of 5% CO2 for 3 days to differentiate into osteoclasts.
Each of the agents in Table 5 was added to osteoclasts at 0.5% (v/v) and maintained at 37° C. under a humidified culture of 5% CO2 for 24 hours. Subsequently, cells were treated with PBS solution containing 3.7% formalin at room temperature for 30 minutes. After the solution was removed, the cells were further treated with acetone/ethanol solution (1:1 vol/vol) at room temperature for one minute and the solution was removed to dry the cells. Immobilized cells were subjected to a reaction in TRAP solution [50 mM sodium tartrate, 90 mM sodium acetate, 0.01% naphthol AS-MX phosphate (manufactured by Sigma), 0.05% fast red violet LB salt (manufactured by Sigma), pH 5.0] at room temperature for 30 minutes and then washed with distilled water. The number of TRAP positive multinucleated osteoclasts was counted and a rate of survival was determined.

[3] = tested on: Escherichia coli (HO141 strain); test: Growth-inhibiting activity against Escherichia coli; assay type: cell-based; conditions: 6 hours, absorbance at 600 nm, read-out: E. coli IC50
Protocol: Escherichia coli (HO141 strain) was precultured in culture medium of 0.5% Polypeptone, 0.5% Meat Extract, 0.3% NaCl, and 0.001% Sodium Dodecyl Sulfate (SDS) at 37° C. Absorbance at 600 nm was measured, and Escherichia coli solution was prepared such that the absorbance is 0.005 and seeded 100 μl each in a 96-well plate. Each of the agents in Table 5 was added at 0.5% (v/v) and maintained at 37° C. Six hours after addition of the agent, absorbance at 600 nm was measured using a microplate reader (manufactured by PerkinElmer) and a proliferation rate was determined from the measurement value.

[4] = tested on: HL-60 cells (human acute promyelocytic leukemia cell line); test: Growth-inhibiting activity against animal cells (WST-8), HL-60; assay type: cell-based; conditions: for IC50: Homo sapiens, read-out: HL60 IC50; for cancer cell growth-inhibiting activity (in words): summary of Table 5 (HL60, K562, tsFT210), RM-T as compared with RM-A
Protocol: as §1, §2

[5] = tested on: Budding yeast (MLC30M strain); test: Growth-inhibiting activity against yeast; assay type: cell-based; conditions: for IC50: Saccharomyces cerevisiae, read-out: Yeast IC50
Protocol: Budding yeast (MLC30M strain) was precultured in a culture medium of 2% Polypeptone, 1% yeast extract, 2% glucose, 0.02% adenine, and 0.001% sodium dodecyl sulfate (SDS) at 30° C. Absorbance at 600 nm was measured, and yeast solution was prepared such that the absorbance is 0.05 and seeded 100 μl each in a 96-well plate. Each of the agents in Table 5 was added at 0.5% (v/v) and maintained at 30° C. Eighteen hours after addition of the agent, absorbance at 600 nm was measured using a microplate reader (manufactured by PerkinElmer) and a proliferation rate was determined from the measurement value.

[6] = tsFT210, 48 h, read-out: tsFT210 IC50

SMILES | IC50 [1, 6] | IC50 ([2]; Mus musculus, 24 h) | IC50 [3] | IC50 ([4]; HL-60, 48 h) | IC50 ([5]; 18 h) | growth inhibiting actions against osteoclast (in words) ([2]; summary of Table 5) | cancer cell growth-inhibiting activity (in words) [4] | IC50 ([1]; tsFT210 cells, 32° C., 48 hours after addition of the agent, WST-8, read-out: tsFT210 IC50) | IC50 ([2]; mouse bone marrow derived osteoclasts, 24 hours, rate of survival) | IC50 ([4]; HL-60 cells, 48 hours after addition of the agent, WST-8) | IC50 ([5]; MLC30M strain, 18 hours, absorbance at 600 nm) | growth-inhibiting activity against yeast (in words) ([5]; summary of Table 5)
CCCC[C@@]1(OC(=O)CCC(=O)O)CC[C@]2(CC[C@H](C)[C@@H](C/C=C(C)/C=C/[C@H](O)[C@@H](C)/C=C/C(=O)O)O2)O[C@H]1/C=C/C(C)=C/C(=O)O [RM-A, Reveromycin A] | 8.5 mg/L (≈ 12.9 µM) | 0.06 mg/L (≈ 0.0908 µM) | > 50 mg/L | 2.7 mg/L (≈ 4.09 µM) | 4.3 mg/L (≈ 6.51 µM) | – | – | – | – | – | – | –
CCCCCC[C@@]1(OC(=O)CCC(=O)O)CC[C@]2(CC[C@H](C)[C@@H](C/C=C(C)/C=C/[C@H](O)[C@@H](C)/C=C/C(=O)O)O2)O[C@H]1/C=C/C(C)=C/C(=O)O [RM-E] | 7 mg/L (≈ 10.2 µM) | 0.1 mg/L (≈ 0.145 µM) | > 50 mg/L | 1.5 mg/L (≈ 2.18 µM) | 2.3 mg/L (≈ 3.34 µM) | exhibited growth inhibiting actions against osteoclast | high | – | – | – | – | –
CCCC[C@H]1CC[C@]2(CC[C@H](C)[C@@H](C/C=C(C)/C=C/[C@H](O)[C@@H](C)/C=C/C(=O)OCC)O2)O[C@H]1/C=C/C(C)=C/C(=O)O [RM-T ethyl-ester] | – | – | > 50 mg/L | – | – | – | high | 11.4 mg/L (≈ 19.9 µM) | 6 mg/L (≈ 10.5 µM) | 0.2 mg/L (≈ 0.349 µM) | > 50 mg/L | –
CCCCC1CCC2(CCC(C)C(C/C=C(C)/C=C/C(O)C(C)/C=C/C(=O)O)O2)OC1/C=C/C(C)=C/C(=O)O (stereo not shown) [RM-T] | 0.4 mg/L (≈ 0.734 µM) | 6.2 mg/L (≈ 11.4 µM) | > 50 mg/L | 0.2 mg/L (≈ 0.367 µM) | 0.05 mg/L (≈ 0.0918 µM) | – | higher | – | – | – | – | exhibited growth-inhibiting activity against yeast
